{"source": "patent US20260317388A1", "about": "“SELECTIVE NUCLEAR BLOCKADE FOR THE TREATMENT OF SEPSIS” (priority 2023, published 2026)", "key": {"Solubility": {"assay": "Solubility", "type": "physicochemical"}, "sepsis": {"system": "sepsis", "conditions": "antibiotic-treated control group; cited from earlier work"}}, "note": "Positions of bridges follow the written chain, without caps; N, C: chain ends. Residues, ends and D or L forms follow the SMILES beside them.", "data": [{"smiles": "CSCC[C@@H]1NC(=O)[C@H](CC(C)C)NC(=O)[C@H](CCCCN)NC(=O)[C@H](CCC(N)=O)NC(=O)[C@H](CCCNC(=N)N)NC(=O)[C@H](CCCCN)NC(=O)[C@H](CCCNC(=N)N)NC(=O)[C@H](CCC(N)=O)NC(=O)[C@H](C(C)C)NC(=O)[C@@H](NC(=O)[C@@H]2CCCN2C(=O)[C@H](C)NC(=O)[C@H](CC(C)C)NC(=O)[C@H](CC(C)C)NC(=O)[C@H](C)NC(=O)[C@H](CC(C)C)NC(=O)[C@H](CC(C)C)NC(=O)[C@@H](NC(=O)[C@H](C)NC(=O)[C@@H]2CCCN2C(=O)[C@H](CC(C)C)NC(=O)[C@H](CC(C)C)NC(=O)[C@H](C)NC(=O)[C@@H](NC(=O)[C@H](C)NC(=O)[C@H](C)N)C(C)C)C(C)C)CSSC[C@@H](C(=O)O)NC(=O)[C@@H]2CCCN2C1=O", "note": "[cSN50.1] (H-AAVALLPAVLLALLAPCVQRKRQKLMPC-OH; disulfide 17-28)", "values": [{"measurement": "solubility", "setting": "Solubility", "value": "≥ 100", "unit": "mg/mL"}, {"measurement": "water solubility and bioavailability relative to SN50 peptide", "setting": "Solubility; vs first generation NTCI (SN50 peptide)", "value": 8, "unit": "times"}]}, {"smiles": "C[C@@H](O)[C@H]1C(=O)N2C(C(=O)O)=C(S[C@@H]3CN[C@H](C(=O)N(C)C)C3)[C@H](C)[C@H]12", "note": "[meropenem]", "values": [{"measurement": "survival with meropenem alone", "setting": "sepsis", "value": 30, "unit": "%"}]}]}
